Data set [1] concerns J774.A1. As to the kind of experiment: Inhibition of LPS-induced NO release in mouse J774.A1 cells at 12.5 to 50 uM when treated with compound and LPS simultaneously measured after 24 hrs by Griess reagent based assay relative to control. It counts as functional, cell-based. The note with it: dose 12.5-50 µM. For orientation: Nitrite, measured by Griess reagent, commonly stands in for NO production.

Data set [2] has as its system J774.A1. As to the kind of experiment: Inhibition of iNOS expression in LPS-stimulated mouse J774.A1 cells at 12.5 to 50 uM measured after […] by flow cytometry analysis relative to control. It counts as functional, cell-based. The settings on record: dose 12.5-50 µM. (Flow cytometry measures light scatter and fluorescence of single cells or particles in a stream.)

Data set [3] relates to J774.A1. Nature of the data set: Cytotoxicity against mouse J774.A1 cells assessed as antiproliferative activity at 12.5 to 50 uM incubated for 24 hrs by MTT assay relative to control. It counts as cell-based. The note with it: j774.a1, 24 h, dose 12.5-50 µM.
Data set [4] concerns J774.A1. Nature of the data set: Cytotoxicity against mouse J774.A1 cells assessed as antiproliferative activity at 200 uM incubated for 24 hrs by MTT assay relative to control. It counts as cell-based. The settings on record: j774.a1, 24 h. Background: Formazan colour is commonly taken as a measure of viable cells.
Data set [5] relates to J774.A1. As to the kind of experiment: Inhibition of LPS-induced NO release in mouse J774.A1 cells at 5 uM when treated with compound and LPS simultaneously measured after 24 hrs by Griess reagent based assay relative to control. It counts as functional. The arrangement: scale not given: the % may be the effect or the level left.

Active and inactive are the calls of the source. The calls are words filed in the database; no cut-off is given here.

With `CC(C)c1cc2ccc3c(c2c(O)c1O)C=CC(=O)C3(C)C`, the outcome with J774.A1 [1] and in the data set on J774.A1 [2] was Active. Further, in the data set with J774.A1 [3], the Activity result was “Non-Toxic”.

Regarding `Cc1cc2c(cc1O)[C@@]13CCC(=O)C(C)(C)[C@@H]1C[C@@H]2OC3`, the outcome in the data set with J774.A1 [1] and in the data set with J774.A1 [2] was Active. Further, the Activity entry with J774.A1 [3] was “Non-Toxic”.

Take `Sc1ncnc2nc[nH]c12` [MERCAPTOPURINE ANHYDROUS]: in the data set with J774.A1 [4], the Activity is on record as 27.86%.

For `CC(CO)C1=C(O)C(=O)c2c(ccc3c2[C@H](O)CCC3(C)C)C1=O` (stereo not given in full), the result in the data set with J774.A1 [1] and with J774.A1 [2] was Active. For the same compound, the Activity result in the data set with J774.A1 [3] is “Non-Toxic”.

With `Cc1cc2c(cc1O)C[C@]1(O)CCCC(C)(C)[C@@H]1CC2`, the outcome with J774.A1 [1] and with J774.A1 [2] was Active. Also, in the data set with J774.A1 [3], the Activity result was “Non-Toxic”.

As to `CC1(C)CCC[C@@]23CO[C@@H](C[C@@H]12)c1cc(O)c(O)cc13`, the Activity result with J774.A1 [3] is listed as “Toxic”.

Regarding `CC1=C[C@@]2(O)CC[C@H]3C(C)(C)CCC[C@]3(CO)C2=CC1=O`, the Activity entry in the data set with J774.A1 [3] is listed as “Toxic”.

As for `CC1=C[C@]2(O)CC[C@H]3C(C)(C)CCC[C@@]3(O)C2=CC1=O`, the result in the data set on J774.A1 [1] and in the data set with J774.A1 [2] was Active. For the same compound, the Activity result in the data set with J774.A1 [3] is given as “Non-Toxic”.

Take `Cc1cc2c(cc1O)[C@@]13CCCC(C)(C)[C@@H]1[C@H](OC3)[C@@H]2O`: the Activity result in the data set on J774.A1 [3] is given as “Toxic”.

As to `COC(=O)[C@@H](N)CCCNC(=N)N[N+](=O)[O-].Cl`, the Activity in the data set with J774.A1 [5] is on record as 57%.

Values taken from ChEMBL document CHEMBL5033989, “Nor-abietane Diterpenoids from Perovskia abrotanoides Roots with Anti-inflammatory Potential” (J Nat Prod, 2021).
